ChEMBL document CHEMBL3588762, “A practical glycosyltransferase assay for the identification of new inhibitor chemotypes” (Medchemcomm, 2014)
Active and inactive are the calls of the source. The rule behind the calls is not given here.

Columns and labels:
[1] = biological target: T1, Alpha 1,4 galactosyltransferase (Neisseria meningitidis, UniProt Q8KHJ3); assay: Inhibition of Neisseria meningitidis alpha-1,4-galactosyltransferase LgtC by inorganic phosphate release from UDP and malachite green dye based inorganic phosphate detection based assay
T1 sequence (Q8KHJ3 whole entry): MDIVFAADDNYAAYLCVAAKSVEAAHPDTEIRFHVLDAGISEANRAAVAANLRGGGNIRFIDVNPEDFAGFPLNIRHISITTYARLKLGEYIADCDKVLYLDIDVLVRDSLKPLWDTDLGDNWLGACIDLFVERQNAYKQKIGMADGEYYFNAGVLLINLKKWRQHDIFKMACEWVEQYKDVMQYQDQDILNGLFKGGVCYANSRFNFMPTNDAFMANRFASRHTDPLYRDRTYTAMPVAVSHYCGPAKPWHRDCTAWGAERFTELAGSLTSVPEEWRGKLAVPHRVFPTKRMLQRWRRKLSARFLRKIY

[2] = biological target: Intestinal-type alkaline phosphatase (Bos taurus) (UniProt P19111); assay: Activity of calf intestinal phosphatase assessed as compound turn over rates by inorganic phosphate release and malachite green dye based inorganic phosphate detection based assay
[3] = biological target: T2, Alpha 1,4 galactosyltransferase (Neisseria meningitidis) (UniProt Q8KHJ3); assay: Activity of Neisseria meningitidis alpha-1,4-galactosyltransferase LgtC assessed as compound turn over rates at 50 to 100 uM incubated for 20 mins by inorganic phosphate release and malachite green dye based inorganic phosphate detection based assay
T2 sequence (whole entry): T1 sequence (Q8KHJ3 whole entry)

[4] = biological target: T3, Beta-1,4-galactosyltransferase 1 (Bos taurus, UniProt P08037); assay: Inhibition of bovine beta-1,4-GalT […] at 29% donor UDP-Gal turn over rates by inorganic phosphate release from UDP and malachite green dye based inorganic phosphate detection based assay
T3 sequence (P08037 whole entry): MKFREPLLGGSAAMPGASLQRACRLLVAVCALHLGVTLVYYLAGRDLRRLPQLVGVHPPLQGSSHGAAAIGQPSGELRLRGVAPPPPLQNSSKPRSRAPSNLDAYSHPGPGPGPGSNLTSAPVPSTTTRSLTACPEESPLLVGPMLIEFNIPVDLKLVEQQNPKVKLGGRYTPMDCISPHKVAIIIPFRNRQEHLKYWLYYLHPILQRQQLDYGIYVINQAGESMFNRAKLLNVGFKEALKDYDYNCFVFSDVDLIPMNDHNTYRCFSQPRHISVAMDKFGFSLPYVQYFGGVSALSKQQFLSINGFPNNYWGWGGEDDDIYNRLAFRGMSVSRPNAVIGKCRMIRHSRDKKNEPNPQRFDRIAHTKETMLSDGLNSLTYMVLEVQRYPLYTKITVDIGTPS

[5] = biological target: T2, Alpha 1,4 galactosyltransferase (Neisseria meningitidis); assay: Inhibition of Neisseria meningitidis alpha-1,4-galactosyltransferase LgtC at 90% donor UDP-Gal turn over rates by inorganic phosphate release from UDP and malachite green dye based inorganic phosphate detection based assay
[6] = biological target: T2, Alpha 1,4 galactosyltransferase (Neisseria meningitidis); assay: Inhibition of Neisseria meningitidis alpha-1,4-galactosyltransferase LgtC at 20% donor UDP-Gal turn over rates by inorganic phosphate release from UDP and malachite green dye based inorganic phosphate detection based assay
[7] = biological target: T4, Beta-1,4-galactosyltransferase 1 (Bos taurus) (UniProt P08037); assay: Inhibition of bovine beta-1,4-GalT […] at 10% to 50 donor UDP-Gal turn over rates by inorganic phosphate release from UDP and malachite green dye based inorganic phosphate detection based assay
T4 sequence (whole entry): T3 sequence (P08037 whole entry)

[8] = biological target: T2, Alpha 1,4 galactosyltransferase (Neisseria meningitidis); assay: Inhibition of Neisseria meningitidis alpha-1,4-galactosyltransferase LgtC at 50% donor UDP-Gal turn over rates by inorganic phosphate release from UDP and malachite green dye based inorganic phosphate detection based assay

Intestinal-type alkaline phosphatase (Bos taurus), sequence (P19111 20-506 limits assumed): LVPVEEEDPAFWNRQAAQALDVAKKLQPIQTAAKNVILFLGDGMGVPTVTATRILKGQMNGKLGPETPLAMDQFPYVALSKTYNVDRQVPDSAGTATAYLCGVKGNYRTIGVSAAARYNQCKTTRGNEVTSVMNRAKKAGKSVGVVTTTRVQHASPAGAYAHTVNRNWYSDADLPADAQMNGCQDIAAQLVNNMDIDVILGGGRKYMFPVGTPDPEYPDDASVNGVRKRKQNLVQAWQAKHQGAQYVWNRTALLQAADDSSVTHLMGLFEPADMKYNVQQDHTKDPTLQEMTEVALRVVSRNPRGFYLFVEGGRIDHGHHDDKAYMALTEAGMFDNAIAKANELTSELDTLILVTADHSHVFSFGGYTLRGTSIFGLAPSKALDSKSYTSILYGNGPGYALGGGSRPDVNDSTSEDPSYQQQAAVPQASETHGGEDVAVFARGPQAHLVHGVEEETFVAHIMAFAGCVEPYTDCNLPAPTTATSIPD

SMILES	IC50 [1] [µM]	Activity [2]	Activity [3]	IC50 [4] [µM]	inhibition [5]	inhibition [6]	inhibition [7]	inhibition [8]
O=Cc1ccc(-c2cn([C@@H]3O[C@H](COP(=O)(O)OP(=O)(O)O[C@H]4O[C@H](CO)[C@H](O)[C@H](O)[C@H]4O)[C@@H](O)[C@H]3O)c(=O)[nH]c2=O)s1	0.9	Active	inactive	9	–	–	–	–
O=c1ccn([C@@H]2O[C@H](CO)[C@@H](O)[C@H]2O)c(=O)[nH]1	–	–	–	–	inactive	inactive	inactive	inactive
O=c1ccn([C@@H]2O[C@H](COP(=O)(O)OP(=O)(O)O)[C@@H](O)[C@H]2O)c(=O)[nH]1	–	Active	–	–	–	–	–	–
